Data published in patent US5969138A, “Pyrrolidinone derivatives” (Mitsui Chemicals, Inc., priority 1996, dated 1999).

What was measured:
[1] = system: head weaving behavior induced by a σ-receptor agonist SKF-10047; assay: Anti-SKF effect: inhibition of SKF-10047-induced head weaving; assay type: in vivo, mouse (male ddY); settings: 1 h; mouse, oral treatment before 60 min; SKF-10047 20 mg/kg s.c.
Protocol: Evaluation Example 3 (Anti-SKF effect)
(§1) Antipsychotic activity for a test drug was studied by means of head weaving behavior induced by a σ-receptor agonist SKF-10047 for a mouse. For the experiment were used 10 male ddY mice aged 5 weeks (Nippon SLC) per a group. The mice were placed in a measuring cage and calmed 1 hour before the initiation of the test. To the mice was orally administered a test drug and after 60 min was subcutaneously administered SKF-10047 in a dose of 20 mg/kg. After 20 min, head weaving was counted for 10 min.

[2] = system: head weaving behavior induced by phencyclidine (PCP); assay: Anti-PCP effect: inhibition of phencyclidine-induced head weaving; assay type: in vivo, rat (male Wistar(ST)); settings: oral treatment before 60 min, PCP 7.5 mg/kg i.p.; for ED50: Rattus norvegicus, po, 1 h; for ED50 Anti-PCP: rat, 60 min
Protocol: Evaluation Example 4 (Anti-PCP effect)
Antipsychotic activity for a test drug was studied by means of head weaving behavior induced by phencyclidine (PCP) for a rat. For the experiment were used male Wistar(ST) rats aged 4weeks (Nippon SLC). The rats were placed in a measuring cage and calmed 1 hour before the initiation of the test. To the rats was orally administered a test drug and after 60 min was intraperitoneally administered PCP in a dose of 7.5 mg/kg. After 20 min, head weaving was counted for 10 min. Efficacy of the drug was evaluated by determining an inhibition (%) compared with the control group from the average of the scores of the test-drug groups, and then estimating a ED50 value.

[3] = system: head weaving behavior induced by a receptor agonist SKF-10047; assay: Persistence of anti-SKF effect (SKF-10047 4 hours after test drug); assay type: in vivo, mouse (male ddY); settings: mouse, oral, SKF-10047 20 mg/kg s.c. 4 hours after test drug
Protocol: Evaluation Example 5 (Persistence of anti-SKF effect) Procedure
as §1, with “Persistence of antipsychotic” for “Antipsychotic”, “receptor” for “σ-receptor”, “4 hours” for “60 min”

[4] = system: reverse tolerance development to methamphetamine (stereotyped behavior); assay: Effect on reverse tolerance development due to repetitive administration of methamphetamine; assay type: in vivo, rat (male Std:Wistar(ST)); settings: rat
Protocol: Evaluation Example 6 (Effect to reverse tolerance development due to repetitive administration of methamphetamine) For the experiment, male Std:Wistar(ST) rat (Nippon SLC) aged 5 weeks were used. A test drug, the compound of formula (IV) described in JP-A 7-252219 or the compound of formula (V) described in JP-A 9-40667 was dissolved in purified water or 0.5% C.M.C./saline. Methamphetamine (mAMP) was dissolved in saline. Dosage volume was 1 mL/kg body weight.
The drugs were repetitively administered for 10 days with a regimen that to a rat, a test drug was orally or intraperitoneally administered and after 60 min mAMP was intraperitoneally administered in a dose of 2 mg/kg. To a normal group, solvent alone was administered in place of the combination of the test drug and mAMP. To a control group, solvent was orally or intraperitoneally administered, and then intraperitoneally mAMP was additionally administered.
After the repetitive administration, there was provided a withdrawal period for 7 days during which the test drug or mAMP was not administered. After the withdrawal, the test drug was discontinued and mAMP was administered in a dose of 2 mg/kg, and then stereotyped behavior of the animal was observed.
After administering mAMP, stereotyped behavior was rated in accordance with the following scale, for 1 min every 10 min until 60 min.
The results are expressed as an inhibition (%) of reverse tolerance development calculated from the following equation, using a total score for six minutes: Inhibition of reverse tolerance development (%)=100-A […]
wherein A represents a value calculated from the following equation:
A=[{(Score for the test drug group)-(Score for the normal group)}/{(Score for the control group)-(Score for the normal group)}]×100

[5] = Safety: simple acute toxicity for a mouse; assay type: in vivo
Protocol: Evaluation Example 8 (Safety)
For the experiment, male Std:ddY mice aged 5 weeks were used. The mice were weighed, and then calmed in an observation cage for more than 1 hour. To the mice, a test drug was orally administered in a dose of 300 mg/kg to observe them for general symptoms until 2 hours.

[6] = target: T1, σ1 receptor (Cavia porcellus, UniProt Q60492); assay: Radioreceptor assay for a σ1 receptor (3H-(+)pentazocine binding, whole brain P2 fraction); settings: guinea pig brain P2 fraction, 3 nM 3H-(+)pentazocine, room temperature, 2 hours; read-out: Affinity for a receptor, Ki σ1
T1 construct: prepared from a whole brain of a guinea pig without cerebellum and medulla; from tissue; host or cells: P2 fraction of guinea pig whole brain without cerebellum and medulla
T1 sequence (Q60492 whole entry): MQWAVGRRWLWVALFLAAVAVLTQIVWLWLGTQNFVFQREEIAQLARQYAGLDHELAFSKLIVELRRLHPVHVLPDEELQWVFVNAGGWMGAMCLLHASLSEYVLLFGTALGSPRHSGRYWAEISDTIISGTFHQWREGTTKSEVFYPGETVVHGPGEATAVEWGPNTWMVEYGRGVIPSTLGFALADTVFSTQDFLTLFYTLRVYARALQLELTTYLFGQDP

[7] = target: T2, D2 receptor (Rattus norvegicus, UniProt P61169); assay: Radioreceptor assay for D2 receptor (3H-spiperone, cerebral striatal homogenate); assay type: binding; settings: read-out: Affinity for a receptor, Ki D2
T2 construct: from tissue; host or cells: rat cerebral striatal homogenate
T2 sequence (P61169 whole entry): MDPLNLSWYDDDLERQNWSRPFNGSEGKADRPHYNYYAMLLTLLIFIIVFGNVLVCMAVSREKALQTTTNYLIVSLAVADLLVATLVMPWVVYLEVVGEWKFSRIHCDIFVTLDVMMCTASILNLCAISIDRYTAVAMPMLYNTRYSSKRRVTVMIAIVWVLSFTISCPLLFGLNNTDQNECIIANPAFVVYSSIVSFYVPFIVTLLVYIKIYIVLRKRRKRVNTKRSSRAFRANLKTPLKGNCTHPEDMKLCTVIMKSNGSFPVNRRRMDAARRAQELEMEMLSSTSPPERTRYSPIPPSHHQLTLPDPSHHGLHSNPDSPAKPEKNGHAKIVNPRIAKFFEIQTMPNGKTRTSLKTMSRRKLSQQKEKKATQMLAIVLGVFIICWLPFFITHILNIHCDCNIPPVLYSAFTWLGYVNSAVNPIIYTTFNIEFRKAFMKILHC
Protocol: Evaluation Example 2 (Radioreceptor assay for D2 receptor) ^3 H-spiperone (Amersham) and a test drug were incubated with a homogenate of rat cerebral striatal site as described in D. R. Burt et al., Proc.Natl.Acad.Sci.U.S.A. 72:4655 (1975), and Ki value was determined as described in the above r radioreceptor assay.

[8] = Blood kinetics; assay type: in vivo, dog (male beagle); settings: 10 mg/kg, plasma; for Cmax / half-life: beagle dog; for Cmax: HPLC; for bioavailability: dog, po, read-out: Extent of Bioavailability; for half-life: estimated from intravenous administration
Protocol: Evaluation Example 7 (Blood kinetics)
For the experiment, male beagle dogs were employed. A test drug was intravenously or orally administered in a dose of 10 mg/kg. Blood samples were collected at 0.25, 0.5, 1, 2, 4, 6 and 24 hours after administering the test drug, and the samples were centrifuged to separate plasma, for which a plasma level of the test drug was determined by HPLC. Half-life of the test drug in blood was estimated from the results at the intravenous administration. An extent of bioavailability is expressed as a rate of AUC at the oral administration to AUC at the intravenous administration.

[9] = system: sigma receptor; settings: background; cited from earlier work
[10] = 300 mg/kg oral, observed until 2 hours

Compound | ED50 [1] [mg/kg] | ED50 [2] [mg/kg] | Convulsion/Treatment [5, 10] | Ki [6] [nM] | Ki [7] [nM] | further results
CCCCN1CCN(CC2CCN(c3cccc(C(F)(F)F)c3)C2=O)CC1 (stereo not shown) [Compound of formula (IV), reference compound] | 14 | 11 | 5/5 |  |  | ED50 [3]: > 100 mg/kg; Inhibition of reverse tolerance ([4]; 30.0 mg/kg intraperitoneal): 92.9%; Death/Treatment [5, 10]: 5/5
COCCN1CCN(CC2CCN(c3ccc(Br)cc3)C2=O)CC1 (stereo not shown) [compound 16] | 0.52 | 1.9 | 0/5 |  |  | Death/Treatment ([5]; in vivo, po, 300 mg/kg): 0/5
C#CCOCCN1CCN(CC2CCN(c3ccc(Cl)cc3)C2=O)CC1 (stereo not shown) [compound 10] |  |  |  | 10 | > 3300 | 
COCCN1CCN(C[C@H]2CCN(c3ccc(Cl)cc3)C2=O)CC1 [compound 39] |  |  |  |  |  | ED50 Anti-PCP [2]: 1.08 mg/kg
COCCN1CCN(C[C@H]2CCN(c3ccc(Cl)cc3)C2=O)CC1 [compound 37] |  |  |  |  |  | ED50 Anti-PCP [2]: 1.15 mg/kg
COCCN1CCN(CC2CCN(c3cccc(Br)c3)C2=O)CC1 (stereo not shown) [compound 18] |  |  |  | 7.5 | > 2800 | 
COCCN1CCN(C[C@H]2CCN(c3ccc(Cl)cc3)C2=O)CC1 [compound 21] | 0.77 | 0.75 | 0/4 | 72 | > 3900 | ED50 [3]: 3.19 mg/kg; Inhibition of reverse tolerance ([4]; 7.5 mg/kg oral): 81.0%; Inhibition of reverse tolerance ([4]; 15.0 mg/kg oral): 93.9%; Cmax [8]: 1520 ng/mL; bioavailability [8]: 83.1%; half-life [8]: 3.5 h; Death/Treatment [5, 10]: 0/4
COC1CCN(C[C@H]2CCN(c3ccc(Cl)cc3)C2=O)CC1 [Compd. of formula (V), reference compound] |  |  | 1/3 |  |  | ED50 [3]: 23.2 mg/kg; Inhibition of reverse tolerance ([4]; 10.0 mg/kg intraperitoneal): 81.7%; Inhibition of reverse tolerance ([4]; 30.0 mg/kg intraperitoneal): 87.8%; Cmax [8]: 460 ng/mL; bioavailability [8]: 64.3%; half-life [8]: 1.5 h; Death/Treatment [5, 10]: 0/3
COCCN1CCN(C[C@H]2CCN(c3ccc(Cl)cc3)C2=O)CC1 [compound 38] |  |  |  |  |  | ED50 Anti-PCP [2]: 1.48 mg/kg
CCOCCN1CCN(CC2CCN(c3ccc(Cl)cc3)C2=O)CC1 (stereo not shown) [compound 8] |  |  | 0/3 | 14 | > 3300 | Death/Treatment ([5]; in vivo, po, 300 mg/kg): 0/3
COCCN1CCN(CC2CCN(c3ccc(Cl)cc3)C2=O)CC1 (stereo not shown) [compound 2] | 2.1 | 1.3 | 0/6 | 85 | > 3300 | Death/Treatment ([5]; in vivo, po, 300 mg/kg): 0/6
C[C@@H]1CN(CCCn2c3ccccc3c3ccccc32)C[C@H](C)N1 [Rimcazole, reference compound] |  |  |  |  | 11600 | affinity or specificity to a sigma receptor [9]: inadequate affinity or specificity to a sigma receptor
